We go through six compounds from ChEMBL document CHEMBL1147873, “Synthesis and biological evaluation of novel analogues of dictyostatin” (Bioorg Med Chem Lett, 2007).

By IC50 is commonly meant the point on the concentration scale where inhibition reaches its midpoint. Read a high IC50 as lower potency.

Common to all, as to type: functional, cell-based
One test concerns DLD-1. As to the kind of experiment: Cytotoxicity against human DLD1 cells after 72 hrs by MTT assay. The following applies: DLD-1, 72 h.
The next test deals with ASPC1. As to the kind of experiment: Cytotoxicity against human AsPC1 cells after 72 hrs by MTT assay. The following applies: ASPC1, 72 h. A general note: Tetrazolium dyes change colour on reduction, which living cells bring about.
The test system of the next test is NCI. Description: Cytotoxicity against human Taxol-adriamycin-resistant NCI cells after 72 hrs by MTT assay.
The next test deals with PANC-1. As to the kind of experiment: Cytotoxicity against human PANC1 cells after 72 hrs by MTT assay. The following applies: PANC-1, 72 h.

Take `C=C/C=C\[C@H](C)[C@@H]1OC(=O)/C=C\C=C\[C@@H](C)[C@@H](O)C[C@H](O)/C=C\[C@H](C)[C@H](O)[C@@H](C)CCCC[C@@H](O)[C@@H]1C`: the IC50 in the test on DLD-1 came out at 85 nM; in the test on ASPC1, 170 nM; with NCI, 1500 nM; in the test on PANC-1, 130 nM.
The like results for `C=C/C=C\[C@H](C)[C@@H]1OC(=O)/C=C\C=C\[C@@H](C)[C@@H](O)C[C@@H](O)/C=C\[C@H](C)[C@H](O)[C@@H](C)C[C@@H](C)CC[C@@H](O)[C@@H]1C` were, in that order, 150 nM, 410 nM, 1100 nM and 240 nM.
In the case of `C=C/C=C\[C@H](C)[C@@H]1OC(=O)/C=C\C=C\[C@@H](C)[C@@H](O)C[C@@H](O)/C=C\[C@H](C)[C@H](O)[C@@H](C)CCCC[C@@H](O)[C@@H]1C`, the half-maximal inhibitory concentration (IC50) in the test with DLD-1 worked out at 790 nM; in the test on ASPC1 it was 2100 nM; in the test with NCI it was 2100 nM; in the test on PANC-1, 1500 nM.
Regarding `C=C/C=C\[C@H](C)[C@@H]1OC(=O)/C=C\C=C\[C@@H](C)[C@@H](O)C[C@H](OC)/C=C\[C@H](C)[C@H](O)[C@@H](C)C[C@@H](C)CC[C@@H](O)[C@@H]1C`, the IC50 in the test on DLD-1 was 2.4 nM; in the test on ASPC1, 31 nM; in the test with NCI, 8.2 nM; in the test on PANC-1 it was 9.7 nM.
Take `C=C/C=C\[C@H](C)[C@@H]1OC(=O)/C=C\C=C\[C@@H](C)[C@@H](O)C[C@H](O)/C=C\[C@H](C)[C@H](O)[C@@H](C)C[C@@H](C)CC[C@@H](O)[C@@H]1C` [DICTYOSTATIN]: the IC50 in the test with NCI was 9.8 nM.
On the same count and under the same terms, next, `C=C/C=C\[C@H](C)[C@H](OC(N)=O)[C@@H](C)[C@H](O)[C@@H](C)C/C(C)=C\[C@H](C)[C@@H](O)[C@@H](C)/C=C\[C@@H](O)C[C@@H]1OC(=O)[C@H](C)[C@@H](O)[C@H]1C` [DISERMOLIDE]: 160 nM.
